In assay [1] the target is T1, human sphingosine-1-phosphate receptor 1 (S1P1) (Homo sapiens (Human), UniProt P21453). Briefly: β-Arrestin2 recruitment assay (PathHunter), S1P1 CHO-K1 cells. It counts as cell-based. The following applies: for Emax: CHO-K1, efficacy (SPAN) normalized to fingolimod, read-out: hS1P1 B-arrestin2 SPAN. The procedure, abridged: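 Enzyme-fragment complementation read-out: agonist-driven β-arrestin2 binding to ProLink-tagged human S1P1 in stable CHO-K1 cells restores β-galactosidase, measured 1 h at room temperature after a 60 min 37° C. compound incubation. Potency as pEC50, efficacy relative to fingolimod (SPAN).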
Target sequence in this assay (P21453 whole entry, looked up, the tested form may be a part): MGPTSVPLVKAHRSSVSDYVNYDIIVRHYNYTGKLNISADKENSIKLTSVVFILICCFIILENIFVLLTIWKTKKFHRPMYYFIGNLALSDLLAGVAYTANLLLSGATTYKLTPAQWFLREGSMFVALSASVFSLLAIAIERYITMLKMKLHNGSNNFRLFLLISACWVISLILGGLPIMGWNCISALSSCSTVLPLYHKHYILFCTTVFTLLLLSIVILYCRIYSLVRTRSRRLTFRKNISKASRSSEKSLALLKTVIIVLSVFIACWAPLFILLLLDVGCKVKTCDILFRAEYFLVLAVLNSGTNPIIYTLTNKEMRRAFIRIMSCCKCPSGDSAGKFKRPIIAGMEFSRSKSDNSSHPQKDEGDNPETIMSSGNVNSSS
Target sequence in this assay (P32121 whole entry partner, looked up, the tested form may be a part): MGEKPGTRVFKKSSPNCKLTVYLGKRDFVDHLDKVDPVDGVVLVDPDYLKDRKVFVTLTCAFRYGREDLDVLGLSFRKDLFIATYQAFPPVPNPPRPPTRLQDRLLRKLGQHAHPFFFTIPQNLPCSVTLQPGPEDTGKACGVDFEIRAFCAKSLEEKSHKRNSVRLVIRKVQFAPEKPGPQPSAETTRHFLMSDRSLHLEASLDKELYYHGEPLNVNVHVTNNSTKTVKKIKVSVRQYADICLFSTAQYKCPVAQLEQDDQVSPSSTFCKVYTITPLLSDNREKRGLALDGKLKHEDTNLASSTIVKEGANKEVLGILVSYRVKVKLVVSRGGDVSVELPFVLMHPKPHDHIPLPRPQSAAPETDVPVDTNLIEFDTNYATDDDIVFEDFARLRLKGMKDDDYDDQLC

Assay [2] has as its system paclitaxel induced peripheral neuropathy. Briefly: Reversal of allodynia induced by paclitaxel in mice (s.c. or p.o., von Frey frequency method). It counts as in vivo, c57bl/6 mice. The following applies: Mus musculus; for inhibition in vivo at 1 mg/kg: sc, 0.5 h, 1 mg/kg s.c., tested 30 min after dosing, read-out: Screen @ 1 mg/kg sc (% MPE). The procedure, abridged: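 Neuropathy was induced in mice by paclitaxel (6 mg/kg i.p., days 1, 3, 5, 7) or oxaliplatin (4 mg/kg i.p., days 1-5), with re-testing about 14 days later. Compounds were given s.c. (tested at 30 min) or p.o. (tested at 60 min; paclitaxel only). A 0.4 g von Frey filament was applied ten times per paw, and % non-response was converted to % MPE.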

The target of assay [3] is human sphingosine-1-phosphate receptor 2 (S1P2) (Homo sapiens (Human), UniProt O95136). Briefly: Inositol monophosphate production (IP-one TB kit), S1P2 CHO-K1 cells. It counts as cell-based. The following applies: for hS1P2 IP-one pEC50: inositol monophosphate accumulation; for Emax: CHO-K1, efficacy normalized to CYM5520, read-out: hS1P2 IP-one SPAN. On the procedure:
(§1) Stable clonal Chinese hamster ovary K1 (CHO-K1) cells co-expressing EA-β-arrestin2 and the human sphingosine-1-phosphate receptor 2 (NM_004230.3, S1P2), human sphingosine-1-phosphate receptor 3 (NM_005226, S1P3) and sphingosine-1-phosphate receptor 5 (NM_001166215.1, S1P5) with a C-terminal Prolink™ tag were purchased from DiscoverX corporation (S1P2: Cat #93-0256C2, S1P3: Cat #93-0217C2, S1P5: Cat #93-0583C2).
(§2) Cell lines were cultured in AssayComplete™ Media 6 (DiscoverX Corporation, Cat #: 920018GF2) at 37° C. and 5% CO2 in a humidified CO2 and temperature-controlled incubator. To begin assay plating, cells were washed with dulbecco's phosphate buffered saline (CellGro, Cat #: 21-031-CV) and lifted from the culturing flask by incubation (37° C., 5 min) with CellStripper (Cellgro, Cat #: 25-056-CI). […] Plated cells were incubated overnight at 37° C. and 5% CO2 in a humidified CO2 and temperature-controlled incubator.
S1P2 Agonist-promoted G-protein responses were determined by measuring changes in intracellular inositol monophosphate using the IP-one TB kit (CisBio, Cat #: 62IPAPEJ) based on time-resolved fluorescence resonance energy transfer (TR-FRET) technology. AssayComplete™ Cell Plating 2 Reagent was removed and replaced with 1× IP-one stimulation buffer (as per manufacturer's instructions) along with test or control compounds at the desired concentrations. Following a 60-minute incubation at 37° C. and 5% CO2 in a humidified CO2 and temperature-controlled incubator, the components of the IP-one TB kit were added as per the manufacturer's instructions. After an hour incubation at room temperature, plates were analyzed by a BMG PheraStar microplate reader.
(§3) The tables below include the efficacy of the compound as compared to a positive control, referred to as “SPAN”. These values are normalized to fingolimod, a known agonist of the sphingosine-1-phosphate 3 and 5 receptor or CYM5520, a known agonist of the sphingosine-1-phosphate 2 receptor. The tables also include potency values (pEC50) for modulating discrete receptor-mediated activities (inhibition of cAMP production or inositol monophosphate accumulation).

Assay [4] has as its target human sphingosine-1-phosphate receptor 3 (S1P3) (Homo sapiens (Human), UniProt Q99500). Briefly: Inhibition of cAMP production (HTRF), S1P3 CHO-K1 cells. It counts as cell-based. The following applies: for hS1P3 cAMP pEC50: inhibition of cAMP production; for Emax: CHO-K1, efficacy normalized to fingolimod, read-out: hS1P3 cAMP SPAN. On the procedure: as §1, §2
(§4) S1P3 and S1P5 Agonist-promoted G-protein responses were determined by measuring changes in intracellular cAMP using the HTRF® cAMP HiRange kit (CisBio, Cat #: 62AM6PEJ) based on time-resolved fluorescence resonance energy transfer (TR-FRET) technology. […] Following a 30-minute room temperature incubation the components of the cAMP HiRange kit were added as per the manufacturer's instructions. After an hour incubation at room temperature, plates were analyzed by a BMG PheraStar microplate reader.
as §3

The target in assay [5] is T1, human sphingosine-1-phosphate receptor 1 (S1P1). The experiment in a line: Inhibition of cAMP production (HTRF cAMP HiRange), S1P1 CHO-K1 cells. Format: cell-based. The following applies: for Emax: CHO-K1, efficacy (SPAN) normalized to fingolimod, read-out: hS1P1 cAMP SPAN. The essentials: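 CHO-K1 cells stably co-expressing human S1P1 (C-terminal Prolink tag) and EA-β-arrestin2 were grown in AssayComplete Media 6 at 37° C. and 5% CO2, plated, and incubated overnight. Agonist-driven inhibition of intracellular cAMP was read by TR-FRET with the HTRF cAMP HiRange kit on a PheraStar reader. Potency is pEC50, and efficacy (SPAN) is normalized to fingolimod.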
Target sequence in this assay (P21453 whole entry, looked up, the tested form may be a part): as the sequence (P21453 whole entry, looked up, the tested form may be a part) above

Assay [6] deals with sphingosine-1-phosphate receptor 5 (S1P5) (Homo sapiens (Human), UniProt Q9H228). Briefly: Inhibition of cAMP production (HTRF), S1P5 CHO-K1 cells. Format: cell-based. The following applies: for hS1P5 cAMP pEC50: inhibition of cAMP production; for Emax: CHO-K1, efficacy normalized to fingolimod, read-out: hS1P5 cAMP SPAN. On the procedure: as §1, §2, §4, §3
Sequence of sphingosine-1-phosphate receptor 5 (S1P5) (Q9H228 whole entry): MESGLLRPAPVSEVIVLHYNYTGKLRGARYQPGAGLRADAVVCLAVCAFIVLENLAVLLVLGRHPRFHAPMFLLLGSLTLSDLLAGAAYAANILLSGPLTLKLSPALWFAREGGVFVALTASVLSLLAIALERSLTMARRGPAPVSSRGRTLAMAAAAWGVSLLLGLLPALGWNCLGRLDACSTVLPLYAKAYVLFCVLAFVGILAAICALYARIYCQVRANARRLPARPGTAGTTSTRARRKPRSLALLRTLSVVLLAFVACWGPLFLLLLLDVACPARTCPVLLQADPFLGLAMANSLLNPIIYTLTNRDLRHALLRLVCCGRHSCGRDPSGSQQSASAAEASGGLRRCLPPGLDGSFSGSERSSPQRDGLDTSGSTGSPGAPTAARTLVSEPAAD
Where [7] appears, read: β-arrestin2 recruitment, S1P1 CHO-K1 cells.
The mark [8] stands for this setting: inhibition of cAMP production, S1P1 CHO-K1 cells.

Sequence of human sphingosine-1-phosphate receptor 2 (S1P2) (O95136 whole entry): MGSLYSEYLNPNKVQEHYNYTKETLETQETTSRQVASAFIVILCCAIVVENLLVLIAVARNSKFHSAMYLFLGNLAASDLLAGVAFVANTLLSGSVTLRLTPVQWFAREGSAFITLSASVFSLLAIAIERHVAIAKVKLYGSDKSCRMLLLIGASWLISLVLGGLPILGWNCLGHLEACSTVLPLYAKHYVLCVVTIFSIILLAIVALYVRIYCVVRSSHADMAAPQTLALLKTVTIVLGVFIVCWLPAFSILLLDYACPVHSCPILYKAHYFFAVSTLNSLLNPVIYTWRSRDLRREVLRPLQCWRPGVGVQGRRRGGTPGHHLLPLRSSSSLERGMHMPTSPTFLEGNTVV
Sequence of human sphingosine-1-phosphate receptor 3 (S1P3) (Q99500 whole entry): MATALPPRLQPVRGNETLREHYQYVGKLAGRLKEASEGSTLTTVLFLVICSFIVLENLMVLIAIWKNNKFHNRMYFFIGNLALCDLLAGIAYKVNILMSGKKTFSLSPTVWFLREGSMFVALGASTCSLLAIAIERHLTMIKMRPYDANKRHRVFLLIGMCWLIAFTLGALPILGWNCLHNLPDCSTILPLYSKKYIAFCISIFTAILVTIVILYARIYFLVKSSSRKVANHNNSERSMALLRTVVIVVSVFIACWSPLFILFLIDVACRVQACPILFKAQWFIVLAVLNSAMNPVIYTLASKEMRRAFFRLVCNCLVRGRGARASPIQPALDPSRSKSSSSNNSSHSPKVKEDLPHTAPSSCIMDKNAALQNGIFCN

Turning to `CCC1(CC)CC(=O)c2cc(-c3nc(-c4ccnc(O)c4)no3)ccc2O1` [Compound 263, 2,2-diethyl-6-[3-(2-hydroxy-4-pyridyl)-1,2,4-oxadiazol-5-yl]chroman-4-one], in assay [1] (setting [7]), the “hS1P1 B-arrestin2 pEC50” value was greater than 5. Moreover, in assay [2] (po, 1 h, 3 mg/kg p.o., tested 60 min after dosing, read-out: Screen @ 3 mg/kg po (% MPE)), the inhibition in vivo at 3 mg/kg was greater than 50%. The inhibition in vivo at 1 mg/kg in assay [2] was greater than 50%. In addition, the “hS1P2 IP-one pEC50” value in assay [3] is less than 5.0. Further, in assay [4], the “hS1P3 cAMP pEC50” value is less than 5.0. Besides, in assay [5] (setting [8]), the “hS1P1 cAMP pEC50” value is greater than 6.5. Also, the “hS1P5 cAMP pEC50” value in assay [6] was less than 5.0.
Regarding `C=CCNc1ccc(-c2nc(-c3ccc4[nH]cnc4c3)no2)cc1C#N` [Compound 177, 5-(3-(1H-benzo[d]imidazol-5-yl)-1,2,4-oxadiazol-5-yl)-2-(allylamino)benzonitrile], the Emax in assay [1] is greater than 75%; in assay [3], less than 50%; in assay [4], greater than 50%; in assay [5], greater than 75%; in assay [6], greater than 50%. In assay [1] (setting [7]), the “hS1P1 B-arrestin2 pEC50” value is greater than 5. Also, in assay [2], the inhibition in vivo at 1 mg/kg is greater than 50%. For the same compound, the “hS1P2 IP-one pEC50” value in assay [3] is reported as less than 5.0. Further, in assay [4], the “hS1P3 cAMP pEC50” value is greater than 5.0. For the same compound, the “hS1P1 cAMP pEC50” value in assay [5] (setting [8]) is recorded as greater than 6.5. Further, the “hS1P5 cAMP pEC50” value in assay [6] is greater than 5.0.
`C=CCNc1ccc(-c2nc(-c3ccc(NS(C)(=O)=O)cc3)no2)cc1C#N` [Compound 149, N-(4-(5-(4-(allylamino)-3-cyanophenyl)-1,2,4-oxadiazol-3-yl)phenyl)methanesulfonamide]: the Emax is greater than 75% in assay [1]; less than 50% in assay [3]; greater than 50% in assay [4]; greater than 75% in assay [5]; greater than 50% in assay [6]. Moreover, in assay [1] (setting [7]), the “hS1P1 B-arrestin2 pEC50” value is listed as greater than 5. The inhibition in vivo at 1 mg/kg in assay [2] was less than 50%. Further, in assay [3], the “hS1P2 IP-one pEC50” value is less than 5.0. Moreover, the “hS1P3 cAMP pEC50” value in assay [4] was greater than 5.0. In addition, in assay [5] (setting [8]), the “hS1P1 cAMP pEC50” value is reported as greater than 6.5. The “hS1P5 cAMP pEC50” value in assay [6] is greater than 5.0.
Regarding `C=CCNc1ccc(-c2nc(-c3cn[nH]c3)no2)cc1C#N` [Compound 252, 5-(3-(1H-pyrazol-4-yl)-1,2,4-oxadiazol-5-yl)-2-(allylamino)benzonitrile], the EC50 in assay [1] (β-arrestin2 recruitment, S1P1 CHO-K1 cells, read-out: hS1P1 B-arrestin2 pEC50 (converted)) is less than 10 µM; in assay [5] (inhibition of cAMP production, S1P1 CHO-K1 cells, read-out: hS1P1 cAMP pEC50 (converted)), less than 0.316 µM. Also, in assay [2], the inhibition in vivo at 1 mg/kg is less than 50%. Besides, the “hS1P2 IP-one pEC50” value in assay [3] is on record as greater than 5.0. Further, the “hS1P3 cAMP pEC50” value in assay [4] is recorded as greater than 5.0. Also, the “hS1P5 cAMP pEC50” value in assay [6] is recorded as greater than 5.0.
For `CC(C)Nc1ccc(-c2nc(-c3ccc4c(c3)CCC(=O)N4)no2)cc1C#N` [Compound 259, 2-(isopropylamino)-5-(3-(2-oxo-1,2,3,4-tetrahydroquinolin-6-yl)-1,2,4-oxadiazol-5-yl)benzonitrile], the Emax in assay [1] is less than 75%; in assay [3], less than 50%; in assay [4] it was less than 50%; in assay [5], greater than 75%; in assay [6], less than 50%. Also, in assay [1] (setting [7]), the “hS1P1 B-arrestin2 pEC50” value was greater than 5. For the same compound, the inhibition in vivo at 1 mg/kg in assay [2] is less than 50%. The “hS1P2 IP-one pEC50” value in assay [3] was less than 5.0. In assay [4], the “hS1P3 cAMP pEC50” value is listed as less than 5.0. In addition, the “hS1P1 cAMP pEC50” value in assay [5] (setting [8]) is recorded as greater than 6.5. The “hS1P5 cAMP pEC50” value in assay [6] is less than 5.0.
For `C=CCNc1ccc(-c2nc(-c3ccc4sc(N)nc4c3)no2)cc1C#N` [Compound 267, 2-(allylamino)-5-(3-(2-aminobenzo[d]thiazol-5-yl)-1,2,4-oxadiazol-5-yl)benzonitrile], in assay [1] (setting [7]), the “hS1P1 B-arrestin2 pEC50” value is listed as greater than 5. In addition, the inhibition in vivo at 1 mg/kg in assay [2] is greater than 50%. Besides, the “hS1P2 IP-one pEC50” value in assay [3] is on record as less than 5.0. Moreover, the “hS1P3 cAMP pEC50” value in assay [4] was less than 5.0. In assay [5] (setting [8]), the “hS1P1 cAMP pEC50” value is listed as greater than 6.5. In assay [6], the “hS1P5 cAMP pEC50” value is reported as less than 5.0.

The record behind these values is patent US11912693B2, “Compounds for modulating S1P1 activity and methods of using the same” (TREVENA, INC., priority 2017, dated 2024).
